Measurements reported in patent US12291501B2 (University of Florida Research Foundation, Inc., priority 2021, dated 2025).
Several values for one entry are separate records, joined by “and”; a condition that tells them apart may be missing. Equal entries are not always repeated.

How the values were obtained:
Format in all cases: cell-based
α9 nAChR = biological target: T1, α9 nAChR (Homo sapiens, UniProt Q9UGM1); assay: Two-electrode voltage-clamp, agonist concentration-response, α9 nAChR in Xenopus oocytes; settings: for EC50 / α9 Imax: peak currents, ± standard error of fit; for α9 Imax: relative to ACh (Imax = 1)
T1 construct: expressed in transfected cells; host or cells: Xenopus laevis oocytes, injected with in vitro transcribed RNA
T1 sequence (Q9UGM1 26-479 limits assumed): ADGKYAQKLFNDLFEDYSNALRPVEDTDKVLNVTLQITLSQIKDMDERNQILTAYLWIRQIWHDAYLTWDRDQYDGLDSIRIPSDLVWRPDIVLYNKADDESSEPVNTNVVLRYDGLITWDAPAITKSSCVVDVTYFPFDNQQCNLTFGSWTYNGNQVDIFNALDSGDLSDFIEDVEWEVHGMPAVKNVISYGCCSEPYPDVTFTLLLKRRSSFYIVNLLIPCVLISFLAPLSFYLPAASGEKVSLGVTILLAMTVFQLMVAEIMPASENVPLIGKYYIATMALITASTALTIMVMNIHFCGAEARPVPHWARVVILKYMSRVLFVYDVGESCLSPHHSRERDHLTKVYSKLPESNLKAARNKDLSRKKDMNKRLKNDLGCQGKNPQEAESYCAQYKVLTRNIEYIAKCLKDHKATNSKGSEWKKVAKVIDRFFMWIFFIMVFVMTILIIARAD
Source text: (§1) Electrophysiology: Xenopus oocytes were microinjected with RNAs to produce functional nAChR which were characterized by two-electrode voltage-clamp measurements. FIGS. 5A-7D present concentration-response curves for the new compounds evaluated with α7, α9, and α9α10 receptors. Table 1 presents the values for Imax and EC50 with these receptors and Table 2 summarizes inhibition data for the compounds with heteromeric nAChR.
(§2) Molecular Biology: Plasmid DNAs encoding the human α7 and heteromeric nAChR were obtained from Jon Lindstrom (University of Pennsylvania, Philadelphia, PA). Mouse muscle subunit clones were obtained from Jim Boulter (Salk Institute, La Jolla CA) and Paul Gardner (Dartmouth, Hanover NH). The human resistance-to-cholinesterase 3 ([…]) clone was obtained from Millet Treinin (Hebrew University, Jerusalem, Israel) and RNA co-injected with α7 to improve the level and speed of receptor expression without affecting their pharmacological properties. Plasmid DNA encoding the human α10 nAChR was obtained from J. Michael McIntosh. Plasmid DNA encoding the human α9 nAChR and the human receptor-associated protein of the synapse (RAPSYN) with codon optimization for expression in Xenopus laevis were obtained from Katrin Richter. RAPSYN RNA was co-injected with the α9 and α10 to improve expression (Richter et al., (2022) Front. Cell Neurosci. 16: 779081). After linearization and purification of the plasmid DNAs, RNAs were prepared using the mMessage mMachine in vitro RNA transcription kit (Ambion, Austin, TX). Frogs were maintained in the Animal Care Service facility of the University of Florida, and all procedures were approved by the University of Florida Institutional Animal Care and Use Committee (approval number 202002669). In brief, the animals were first anesthetized for 15-20 min in 1.5 l frog tank water containing 1 g of MS-222 buffered with sodium bicarbonate. Oocytes were obtained surgically from mature female Xenopus laevis (Nasco, Ft. Atkinson WI, USA) and treated with 1.4 mg/ml type 1 collagenase (Worthington Biochemicals, Freehold NJ, USA) for 2-4 h at rt in Ca2+-free Barth's solution (88 mM NaCl, 1 mM KCl, 2.38 mM NaHCO3, 0.82 mM MgSO4, 15 mM HEPES, and 12 mg/l tetracycline, pH 7.6) to remove the ovarian tissue and the follicular layers. Stage V oocytes were injected with 4-6 ng CHRNA7 RNA and 2-3 ng RIC3 RNA (2:1 ratio) in 50 nl water, or with 12 ng CHRNA9 RNA and 3 ng RAPSN RNA, or along with 12 ng CHRNA10 RNA in 50 nl water. Oocytes were maintained in Barth's solution containing 0.32 mM Ca(NO3)2 and 0.41 mM CaCl2, and recordings were conducted 2-20 days after injection.
(§3) Electrophysiology: Two-electrode voltage-clamp experiments were conducted using OpusXpress 6000A (Molecular Devices, Union City CA, USA). Both the voltage and current electrodes were filled with 3 M KCl. Oocytes were voltage-clamped at −60 mV at rt. The oocytes were perfused with Ringer's solution (115 mM NaCl, 2.5 mM KCl, 1.8 mM CaCl2, 10 mM HEPES, 1 μM atropine, pH 7.2) at 2 ml/min. […] Drug applications were 12 s in duration followed by 181 s washout periods.
(§4) The responses were calculated as both peak-current amplitudes and net charge. Data were collected at 50 Hz, filtered at 20 Hz, and analyzed by Clampfit (Molecular Devices) and Excel (Microsoft, Redmond, WA, United States). Data are expressed as means±SEM from at least five oocytes for each experiment and plotted with Kaleidagraph 4.5.2 (Abelbeck Software, Reading, PA, United States). Each episode of data acquisition was a total of 210 s and included an initial 30 s period used to define the baseline for the drug-evoked responses. After 30 s, drugs were applied, and the following 120 s were defined as the drug response period for analysis. […] The values for the curve fits were generated using the Levenberg-Marquardt algorithm to obtain the best Chi-Square fit to the Hill equation using the Kaleidagraph 4.5.2 plotting program. […]

α7 nAChR [1] = biological target: T2, α7 nAChR (Homo sapiens, UniProt P36544); assay: α7 responses to drugs co-applied with the PAM PNU-120596 (silent agonism); settings: drug 30 μM + 10 μM PNU-120596; normalized to 30 μM ACh + 10 μM PNU-120596
T2 construct: expressed in transfected cells; host or cells: Xenopus laevis oocytes, injected with in vitro transcribed RNA
T2 sequence (P36544 23-502): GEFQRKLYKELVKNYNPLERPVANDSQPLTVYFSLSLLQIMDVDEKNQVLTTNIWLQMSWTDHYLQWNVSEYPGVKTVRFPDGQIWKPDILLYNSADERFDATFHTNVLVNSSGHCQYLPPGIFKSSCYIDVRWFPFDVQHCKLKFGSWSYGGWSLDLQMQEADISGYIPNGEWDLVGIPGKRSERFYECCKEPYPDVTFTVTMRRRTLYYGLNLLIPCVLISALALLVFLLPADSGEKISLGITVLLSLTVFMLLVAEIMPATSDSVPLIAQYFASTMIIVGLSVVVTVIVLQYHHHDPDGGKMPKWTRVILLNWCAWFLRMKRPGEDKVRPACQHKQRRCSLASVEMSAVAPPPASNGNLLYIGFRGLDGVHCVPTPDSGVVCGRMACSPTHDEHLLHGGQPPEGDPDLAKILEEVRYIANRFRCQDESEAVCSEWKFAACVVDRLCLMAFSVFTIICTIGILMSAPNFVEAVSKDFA
Source text: (§5) Molecular Biology: Plasmid DNAs encoding the human α7 and heteromeric nAChR were obtained from Jon Lindstrom (University of Pennsylvania, Philadelphia, PA). Mouse muscle subunit clones were obtained from Jim Boulter (Salk Institute, La Jolla CA) and Paul Gardner (Dartmouth, Hanover NH). […] Plasmid DNA encoding the human α10 nAChR was obtained from J. Michael McIntosh. Plasmid DNA encoding the human α9 nAChR and the human receptor-associated protein of the synapse (RAPSYN) with codon optimization for expression in Xenopus laevis were obtained from Katrin Richter. […] After linearization and purification of the plasmid DNAs, RNAs were prepared using the mMessage mMachine in vitro RNA transcription kit (Ambion, Austin, TX). […] Oocytes were maintained in Barth's solution containing 0.32 mM Ca(NO3)2 and 0.41 mM CaCl2, and recordings were conducted 2-20 days after injection.
(§6) Electrophysiology: Two-electrode voltage-clamp experiments were conducted using OpusXpress 6000A (Molecular Devices, Union City CA, USA). Both the voltage and current electrodes were filled with 3 M KCl. Oocytes were voltage-clamped at −60 mV at rt.
(§7) The responses were calculated as both peak-current amplitudes and net charge. Data were collected at 50 Hz, filtered at 20 Hz, and analyzed by Clampfit (Molecular Devices) and Excel (Microsoft, Redmond, WA, United States). Data are expressed as means±SEM from at least five oocytes for each experiment and plotted with Kaleidagraph 4.5.2 (Abelbeck Software, Reading, PA, United States). Each episode of data acquisition was a total of 210 s and included an initial 30 s period used to define the baseline for the drug-evoked responses. After 30 s, drugs were applied, and the following 120 s were defined as the drug response period for analysis. […] The values for the curve fits were generated using the Levenberg-Marquardt algorithm to obtain the best Chi-Square fit to the Hill equation using the Kaleidagraph 4.5.2 plotting program. The errors in the tables are the calculated standard errors of the fit parameters based on the goodness of fit.

α9α10 nAChR = biological target: T3, α9α10 nAChR (Homo sapiens, UniProt Q9GZZ6+Q9UGM1); assay: Two-electrode voltage-clamp, agonist concentration-response, α9α10 nAChR in Xenopus oocytes; settings: peak currents, ± standard error of fit; for α9α10 Imax: relative to ACh (Imax = 1)
T3 construct: expressed in transfected cells; host or cells: Xenopus laevis oocytes, injected with in vitro transcribed RNA
T3 sequence (Q9UGM1 26-479 limits assumed): as the sequence (Q9UGM1 26-479 limits assumed) above
T3 sequence (Q9GZZ6 25-450): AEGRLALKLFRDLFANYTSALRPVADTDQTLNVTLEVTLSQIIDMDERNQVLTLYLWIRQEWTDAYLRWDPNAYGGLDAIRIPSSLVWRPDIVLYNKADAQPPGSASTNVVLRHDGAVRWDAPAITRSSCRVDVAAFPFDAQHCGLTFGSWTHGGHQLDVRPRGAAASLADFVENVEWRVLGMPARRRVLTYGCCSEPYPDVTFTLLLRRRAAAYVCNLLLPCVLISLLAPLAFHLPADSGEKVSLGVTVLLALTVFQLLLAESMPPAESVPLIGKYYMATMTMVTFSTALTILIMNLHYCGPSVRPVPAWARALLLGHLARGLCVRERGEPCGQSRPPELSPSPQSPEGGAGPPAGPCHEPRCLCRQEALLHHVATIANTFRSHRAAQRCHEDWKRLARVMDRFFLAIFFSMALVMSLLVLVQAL
Source text: as §1, §2, §3, §4

α7 nAChR [2] = biological target: T2, α7 nAChR; assay: Two-electrode voltage-clamp, agonist concentration-response, α7 nAChR in Xenopus oocytes; settings: for EC50 / α7 Imax: net charge, ± standard error of fit; for α7 Imax: relative to ACh (Imax = 1)
Source text: as §1, §5, §6, §7

α3β4 nAChR = biological target: T4, α3β4 nAChR (Homo sapiens, UniProt P30926+P32297); assay: Inhibition of control ACh responses by co-application, α3β4 nAChR in oocytes; settings: 3 μM compound co-applied with ACh; fraction of control ACh response
T4 construct: expressed in transfected cells; host or cells: Xenopus laevis oocytes
T4 sequence (P32297 32-505): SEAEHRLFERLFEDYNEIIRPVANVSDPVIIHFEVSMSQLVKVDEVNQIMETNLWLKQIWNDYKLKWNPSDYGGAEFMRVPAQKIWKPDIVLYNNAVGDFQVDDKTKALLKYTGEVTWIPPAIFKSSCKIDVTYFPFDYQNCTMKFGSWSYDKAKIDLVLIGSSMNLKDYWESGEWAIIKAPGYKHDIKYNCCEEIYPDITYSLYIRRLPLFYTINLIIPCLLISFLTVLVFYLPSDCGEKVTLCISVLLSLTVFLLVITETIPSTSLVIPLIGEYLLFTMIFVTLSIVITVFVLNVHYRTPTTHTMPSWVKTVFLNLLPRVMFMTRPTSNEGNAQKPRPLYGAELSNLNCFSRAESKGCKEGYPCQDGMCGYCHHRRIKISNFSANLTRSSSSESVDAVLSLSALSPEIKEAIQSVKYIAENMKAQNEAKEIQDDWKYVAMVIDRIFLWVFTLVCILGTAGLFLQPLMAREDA
T4 sequence (P30926 22-498): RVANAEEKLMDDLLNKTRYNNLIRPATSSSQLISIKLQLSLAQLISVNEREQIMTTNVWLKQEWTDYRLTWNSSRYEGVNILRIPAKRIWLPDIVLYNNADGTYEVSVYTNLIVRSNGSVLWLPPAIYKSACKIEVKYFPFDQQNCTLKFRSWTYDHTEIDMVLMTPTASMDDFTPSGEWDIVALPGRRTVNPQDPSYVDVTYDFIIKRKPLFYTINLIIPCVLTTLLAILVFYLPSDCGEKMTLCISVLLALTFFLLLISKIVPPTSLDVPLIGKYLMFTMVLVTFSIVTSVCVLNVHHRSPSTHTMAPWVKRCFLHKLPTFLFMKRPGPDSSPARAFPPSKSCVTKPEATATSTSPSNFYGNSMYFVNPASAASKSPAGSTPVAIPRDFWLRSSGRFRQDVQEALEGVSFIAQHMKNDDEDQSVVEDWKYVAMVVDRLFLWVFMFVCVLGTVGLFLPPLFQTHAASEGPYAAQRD
Description: (§8) Initial profiling against heteromeric receptors: The test compounds for their ability to activate or inhibit other nAChR subtypes were evaluated. Agonist activity was evaluated by applying the compounds at 100 or 30 μM to human α4β2 and α3β4 as well as to mouse muscle α1β1εδ nAChR expressed in Xenopus oocytes. […] The inhibitory activity was generally low (Table 3).
as §2, §3, §7

α4β2 nAChR = biological target: T5, α4β2 nAChR (Homo sapiens, UniProt P17787+P43681); assay: Inhibition of control ACh responses by co-application, α4β2 nAChR in oocytes; settings: 3 μM compound co-applied with ACh; fraction of control ACh response
T5 construct: expressed in transfected cells; host or cells: Xenopus laevis oocytes
Description: as §8, §2, §3, §7

α1β1εδ nAChR = biological target: T6, α1β1εδ nAChR (Mus musculus, UniProt P02716+P04756+P09690+P20782); assay: Inhibition of control ACh responses by co-application, muscle α1β1εδ nAChR in oocytes; settings: 3 μM compound co-applied with ACh; fraction of control ACh response
T6 construct: expressed in transfected cells; host or cells: Xenopus laevis oocytes
T6 sequence (P04756 21-457): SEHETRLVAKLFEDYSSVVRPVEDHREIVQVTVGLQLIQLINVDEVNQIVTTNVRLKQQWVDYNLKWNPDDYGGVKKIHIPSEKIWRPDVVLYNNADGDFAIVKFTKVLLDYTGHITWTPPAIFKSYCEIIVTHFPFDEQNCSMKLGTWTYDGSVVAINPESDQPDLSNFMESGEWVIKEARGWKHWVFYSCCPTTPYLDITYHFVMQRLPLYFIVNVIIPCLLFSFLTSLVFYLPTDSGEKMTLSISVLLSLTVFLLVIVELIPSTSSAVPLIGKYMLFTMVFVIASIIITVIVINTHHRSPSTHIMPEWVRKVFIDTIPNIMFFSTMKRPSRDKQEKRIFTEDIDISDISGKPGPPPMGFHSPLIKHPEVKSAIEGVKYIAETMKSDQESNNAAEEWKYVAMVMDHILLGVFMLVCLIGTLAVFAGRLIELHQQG
T6 sequence (P09690 24-501): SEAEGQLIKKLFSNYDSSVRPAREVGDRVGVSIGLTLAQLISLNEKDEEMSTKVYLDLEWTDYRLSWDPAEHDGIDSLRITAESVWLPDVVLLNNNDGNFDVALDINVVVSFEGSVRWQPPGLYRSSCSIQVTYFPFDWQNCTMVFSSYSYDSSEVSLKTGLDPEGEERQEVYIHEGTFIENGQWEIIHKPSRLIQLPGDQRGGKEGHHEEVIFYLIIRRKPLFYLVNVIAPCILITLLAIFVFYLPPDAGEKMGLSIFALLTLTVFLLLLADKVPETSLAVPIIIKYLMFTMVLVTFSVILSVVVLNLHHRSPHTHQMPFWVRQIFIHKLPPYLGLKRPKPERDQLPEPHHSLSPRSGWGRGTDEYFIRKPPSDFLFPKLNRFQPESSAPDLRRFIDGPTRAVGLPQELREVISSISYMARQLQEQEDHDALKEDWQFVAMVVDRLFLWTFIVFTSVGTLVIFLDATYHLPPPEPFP
T6 sequence (P20782 21-493): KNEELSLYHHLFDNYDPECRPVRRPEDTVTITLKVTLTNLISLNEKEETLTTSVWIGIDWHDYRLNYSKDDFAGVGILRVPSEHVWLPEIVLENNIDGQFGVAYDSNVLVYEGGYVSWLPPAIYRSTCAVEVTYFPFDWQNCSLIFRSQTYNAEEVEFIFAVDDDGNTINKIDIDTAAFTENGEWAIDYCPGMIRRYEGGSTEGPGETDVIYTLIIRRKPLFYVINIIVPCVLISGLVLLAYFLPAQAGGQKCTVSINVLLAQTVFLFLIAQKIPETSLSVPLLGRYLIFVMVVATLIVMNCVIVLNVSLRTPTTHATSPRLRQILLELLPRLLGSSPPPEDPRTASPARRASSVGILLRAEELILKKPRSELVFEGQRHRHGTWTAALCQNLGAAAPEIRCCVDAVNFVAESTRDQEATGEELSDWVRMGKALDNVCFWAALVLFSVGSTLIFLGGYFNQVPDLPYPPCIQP
T6 sequence (P02716 25-520): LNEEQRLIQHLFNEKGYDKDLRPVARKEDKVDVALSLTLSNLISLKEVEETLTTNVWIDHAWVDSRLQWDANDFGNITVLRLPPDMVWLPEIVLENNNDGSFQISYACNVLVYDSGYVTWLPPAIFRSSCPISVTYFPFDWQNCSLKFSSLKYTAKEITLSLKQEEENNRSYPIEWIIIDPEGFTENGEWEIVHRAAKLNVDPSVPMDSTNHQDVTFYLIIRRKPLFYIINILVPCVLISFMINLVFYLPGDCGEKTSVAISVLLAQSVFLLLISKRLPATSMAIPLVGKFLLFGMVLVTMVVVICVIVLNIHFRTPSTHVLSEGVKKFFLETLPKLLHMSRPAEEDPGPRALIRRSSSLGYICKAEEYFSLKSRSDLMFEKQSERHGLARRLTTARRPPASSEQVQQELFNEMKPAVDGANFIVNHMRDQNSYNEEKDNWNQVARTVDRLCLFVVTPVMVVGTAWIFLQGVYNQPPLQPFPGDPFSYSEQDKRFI
Description: as §8, §2, §3, §7

Row | Structure (SMILES) | Agonist character / efficacy at α9 (α9 nAChR) | EC50 (α9 nAChR) [µM] | Fold greater potency for α9 than for α7 (α9 nAChR; ratio of EC50 values) [fold] | α9 Imax (α9 nAChR) | Response co-applied with PNU-120596, normalized to ACh co-applied with PNU-120596 (α7 nAChR [1]) | EC50 (α9α10 nAChR) [µM] | α9α10 Imax (α9α10 nAChR) | EC50 (α7 nAChR [2]) [µM] | α7 Imax (α7 nAChR [2]) | Effect of co-application on the control ACh responses, α3β4 (α3β4 nAChR) | Effect of co-application on the control ACh responses, α4β2 (α4β2 nAChR) | Agonist character / efficacy at α7 (α7 nAChR [2]) | Effect of co-application on the control ACh responses, α1β1εδ (α1β1εδ nAChR)
1 | CC[N+]1(CC)CCN(c2ccc(C(N)=O)cc2)CC1 [Compound 1, 4-(4-carbamoylphenyI)-1,1-diethylpiperazin-1-ium iodide, reference compound] | full α9 agonist | 1.15 ± 0.24 | 66 | 0.80 ± 0.03 | 0.18 | 13 ± 11 | 1.19 ± 0.25 | 76 ± 2 | 0.34 ± 0.01 and 0.34 | – | – | – | –
2 | CC[N+]1(CC)CCN(c2ccc(C(=O)N3CCCC3)cc2)CC1.[I-] [Compound 3a, 1,1-diethyl-4-(4-(pyrrolidine-1-carbonyl)phenyl)piperazin-1-ium iodide] | moderate efficacy | 45 ± 22 | – | 0.69 ± 0.09 | 0.01 | 15 ± 3.1 | 0.56 ± 0.04 | 500 ± 500 | 0.06 ± 0.11 and 0.06 | 0.849 ± 0.034 | 0.919 ± 0.022 | lost agonism | 0.541 ± 0.048
3 | CCCNC(=O)c1ccc(N2CC[N+](CC)(CC)CC2)cc1.[I-] [Compound 3b, 1,1-diethyl-4-(4-(propylcarbamoyl)phenyl)piperazin-1-ium iodide] | – | 9 ± 6 | – | 1.13 ± 0.15 | 0.19 | 11 ± 6 | 0.79 ± 0.13 | 280 ± 240 | 0.38 ± 0.09 and 0.38 | 0.650 ± 0.039 | 0.946 ± 0.032 | – | 0.709 ± 0.086
